# Test results published in patent publication US20090111798A1, “5,6-DIHYDRO-1H-PYRIDIN-2-ONE COMPOUNDS” (priority 2006, published 2009).
# Counter-ions that a name gives are not always drawn.
# Target: NS5B polymerase (Hepatitis C virus genotype 1b, UniProt P26663)
# Assay: biochemical
# Conditions: NS5B polymerase inhibition; 20 nM enzyme, 75 min at 28° C.
# Procedure: Compounds were tested for HCV polymerase inhibition. Assays were performed in a 96-well streptavidin-coated FlashPlate using 20 nM enzyme, 0.5μ Ci of [α-^33P]GTP, 0.6 μM GTP, and 250 nM 5′biotinylated oligo (rG13)/poly rC in 20 mM Tris-HCl, pH 7.5, 5 mM MgCl2, 5 mM dithiothreitol, 0.1 g/L bovine serum albumin, and 100 U/mL RNAse inhibitor. The reaction was stopped by aspiration after 75 min at 28° C. and the plate was washed several times. After washing and drying the plate, incorporated radioactivity was counted using a Microbeta scintillation counter. IC50 values were calculated relative to the uninhibited control and inhibition data were fitted to a 4-parameter IC50 equation.
# NS5B polymerase, sequence (P26663 2420-3010): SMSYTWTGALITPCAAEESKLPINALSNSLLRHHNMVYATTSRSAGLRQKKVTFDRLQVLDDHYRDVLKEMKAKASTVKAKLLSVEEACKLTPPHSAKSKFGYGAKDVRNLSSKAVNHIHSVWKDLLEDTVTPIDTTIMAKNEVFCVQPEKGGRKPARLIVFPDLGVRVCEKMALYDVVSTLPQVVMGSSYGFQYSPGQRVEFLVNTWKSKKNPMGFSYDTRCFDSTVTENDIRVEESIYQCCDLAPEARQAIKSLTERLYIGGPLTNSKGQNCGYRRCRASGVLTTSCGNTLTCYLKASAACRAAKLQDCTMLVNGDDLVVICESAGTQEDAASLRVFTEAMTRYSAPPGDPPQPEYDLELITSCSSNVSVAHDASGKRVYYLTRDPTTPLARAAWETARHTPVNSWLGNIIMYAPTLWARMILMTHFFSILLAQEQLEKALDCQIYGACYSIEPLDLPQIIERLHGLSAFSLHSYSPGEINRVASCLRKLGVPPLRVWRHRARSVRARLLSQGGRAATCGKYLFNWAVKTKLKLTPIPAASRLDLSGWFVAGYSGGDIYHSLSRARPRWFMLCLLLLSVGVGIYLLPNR
row,IC50 [nM],Structure (SMILES)
1,1000 to 100000,"O=C1C(C2=NS(=O)(=O)c3cc(I)ccc3N2)=C(O)C2CCCCCC2N1Cc1ccc(F)cc1 (centres unmarked) [Example 46, 1-(4-Fluoro-benzyl)-4-hydroxy-3-(7-iodo-1,1-dioxo-1,4-dihydro-1λ^6-benzo[1,2,4]thiadiazin-3-yl)-1,4-a,5,6,7,8,9,9a-octahydro-cyclohepta[b]pyridin-2-one]"
2,1000 to 100000,"CC(C)(C)CCN1C(=O)C(C2=NS(=O)(=O)c3cc(NS(C)(=O)=O)ccc3N2)=C(O)C2CCCCCCC21 (centres unmarked) [Example 35, N-{3-[1-(3,3-Dimethyl-butyl)-4-hydroxy-2-oxo-1,2,4a,5,6,7,8,9,10,10a-decahydro-cycloocta[b]pyridin-3-yl]-1,1-dioxo-1,4-dihydro-1λ^6-benzo[1,2,4]thiadiazin-7-yl]-methanesulfonamide]"
3,20 to 100,"CS(=O)(=O)Nc1ccc2c(c1)S(=O)(=O)N=C(C1=C(O)[C@@H]3CCCC[C@@H]3N(Cc3ccc(F)cc3)C1=O)N2 [Example 13, (4aR,8aS)—N-{3-[1-(4-Fluoro-benzyl)-4-hydroxy-2-oxo-1,2,4a,5,6,7,8,8a-octahydro-quinolin-3-yl]-1,1-dioxo-1,4-dihydro-1λ^6-benzo[1,2,4]thiadiazin-7-yl}-methanesulfonamide]"
4,100 to 1000,"CC(C)N1C(=O)C(C2=NS(=O)(=O)c3cc(NS(C)(=O)=O)ccc3N2)=C(O)[C@@H]2CCC[C@@H]21 (relative stereo) [Example 55, cis-N-[3-(4-Hydroxy-1-isopropyl-2-oxo-2,4a,5,6,7,7a-hexahydro-1H-[1]pyrindin-3-yl)-1,1-dioxo-1,4-dihydro-1λ^6-benzo[1,2,4]thiadiazin-7-yl]-methanesulfonamide]"
5,< 20,"CS(=O)(=O)Nc1ccc2c(c1)S(=O)(=O)N=C(C1=C(O)C3CCC=CC3N(Cc3ccc(F)cc3)C1=O)N2 (centres unmarked) [Example 16, N-{3-[1-(4-Fluoro-benzyl)-4-hydroxy-2-oxo-1,2,4a,5,6,8a-hexahydro-quinolin-3-yl]-1,1-dioxo-1,4-dihydro-1λ^6-benzo[1,2,4]thiadiazin-7-yl}-methanesulfonamide]"
6,1000 to 100000,"CN(c1ccc2c(c1)S(=O)(=O)N=C(C1=C(O)C3CCCCCCC3N(CCC(C)(C)C)C1=O)N2)S(C)(=O)=O (centres unmarked) [Example 36, N-{3-[1-(3,3-Dimethyl-butyl)-4-hydroxy-2-oxo-1,2,4a,5,6,7,8,9,10,10a-decahydro-cycloocta[b]pyridin-3-yl]-1,1-dioxo-1,4-dihydro-1λ^6-benzo[1,2,4]thiadiazin-7-yl]-N-methyl-methanesulfonamide]"
7,< 20,CS(=O)(=O)Nc1ccc2c(c1)S(=O)(=O)N=C(C1=C(O)[C@@H]3CCC[C@@H]3N(Cc3cccc(F)c3)C1=O)N2 (relative stereo) [Example 8]
8,< 20,"Cc1cccc(CN2C(=O)C(C3=NS(=O)(=O)c4cc(NS(C)(=O)=O)ccc4N3)=C(O)[C@@H]3CCC[C@@H]32)c1 [Example 23, (4aR,7aS)—N-{3-[4-Hydroxy-1-(3-methyl-benzyl)-2-oxo-2,4-a,5,6,7,7a-hexahydro-1H-[1]pyrindin-3-yl]-1,1-dioxo-1,4-dihydro-1λ^6-benzo[1,2,4]thiadiazin-7-yl}-methanesulfonamide]"
9,20 to 100,"CS(=O)(=O)Nc1ccc2c(c1)S(=O)(=O)N=C(C1=C(O)[C@@H]3CCC[C@@H]3N(NC3CCC3)C1=O)N2 (relative stereo) [Example 41, cis-N-[3-(1-Cyclobutylamino-4-hydroxy-2-oxo-2,4-a,5,6,7,7a-hexahydro-1H-[1]pyrindin-3-yl)-1,1-dioxo-1,4-dihydro-1λ^6-benzo[1,2,4]thiadiazin-7-yl]-methanesulfonamide trifluoroacetic acid salt]"
10,1000 to 100000,"O=C1C(C2=NS(=O)(=O)c3cc(I)ccc3N2)=C(O)C2CCCCC2N1Cc1ccc(F)cc1 (centres unmarked) [Example 50, 1-(4-Fluoro-benzyl)-4-hydroxy-3-(7-iodo-1,1-dioxo-1,4-dihydro-1λ^6-benzo[1,2,4]thiadiazin-3-yl)-4-a,5,6,7,8,8a-hexahydro-1H-quinolin-2-one]"
11,< 20,"CS(=O)(=O)Nc1ccc2c(c1)S(=O)(=O)N=C(C1=C(O)[C@@H]3CCC[C@@H]3N(Cc3ccc(Cl)cc3)C1=O)N2 (relative stereo) [Example 56, cis-N-{3-[1-(4-Chloro-benzyl)-4-hydroxy-2-oxo-2,4a,5,6,7,7a-hexahydro-1H-[1]pyrindin-3-yl]-1,1-dioxo-1,4-dihydro-1λ^6-benzo[1,2,4]thiadiazin-7-yl}-methanesulfonamide]"
12,100 to 1000,"CS(=O)(=O)Nc1ccc2c(c1)S(=O)(=O)N=C(C1=C(O)[C@@H]3CCC[C@@H]3N(Cc3ccc(C(F)(F)F)cc3)C1=O)N2 [Example 14, (4aR,7aS)—N-{3-[4-Hydroxy-2-oxo-1-(4-trifluoromethyl-benzyl)-2,4-a,5,6,7,7a-hexahydro-1H-[1]pyrindin-3-yl]-1,1-dioxo-1,4-dihydro-1λ^6 benzo[1,2,4]thiadiazin-7-yl}-methanesulfonamide]"
13,20 to 100,"CC(C)CCN1C(=O)C(C2=NS(=O)(=O)c3cc(NS(C)(=O)=O)ccc3N2)=C(O)C2CCCCCC21 (centres unmarked) [Example 33, N-{3-[4-Hydroxy-1-(3-methyl-butyl)-2-oxo-2,4-a,5,6,7,8,9,9a-octahydro-1H-cyclohepta[b]pyridin-3-yl]-1,1-dioxo-1,4-dihydro-1λ^6-benzo[1,2,4]thiadiazin-7-yl}-methanesulfonamide]"
14,< 20,"CS(=O)(=O)Nc1ccc2c(c1)S(=O)(=O)N=C(C1=C(O)[C@@H]3CCC[C@@H]3N(Cc3ccc(F)cc3)C1=O)N2 (relative stereo) [Example 1, cis-N-{3-[1-(4-Fluoro-benzyl)-4-hydroxy-2-oxo-2,4-a,5,6,7,7a-hexahydro-1H-[1]pyrindin-3-yl]-1,1-dioxo-1,4-dihydro-1λ^6-benzo[1,2,4]thiadiazin-7-yl}-methanesulfonamide]"
15,100 to 1000,"CCN1C(=O)C(C2=NS(=O)(=O)c3cc(NS(C)(=O)=O)ccc3N2)=C(O)[C@@H]2CCC[C@@H]21 (relative stereo) [Example 54, cis-N-[3-(1-Ethyl-4-hydroxy-2-oxo-2,4a,5,6,7,7a-hexahydro-1H-[1]pyrindin-3-yl)-1,1-dioxo-1,4-dihydro-1λ^6-benzo[1,2,4]thiadiazin-7-yl]-methanesulfonamide]"
16,1000 to 100000,"CN1C(=O)C(C2=NS(=O)(=O)c3cc(NS(C)(=O)=O)ccc3N2)=C(O)[C@@H]2CCC[C@@H]21 (relative stereo) [Example 53, cis-N-[3-(4-Hydroxy-1-methyl-2-oxo-2,4a,5,6,7,7a-hexahydro-1H-[1]pyrindin-3-yl)-1,1-dioxo-1,4-dihydro-1λ^6-benzo[1,2,4]thiadiazin-7-yl]-methanesulfonamide]"
17,20 to 100,"NCCS(=O)(=O)Nc1ccc2c(c1)S(=O)(=O)N=C(C1=C(O)[C@@H]3CCC[C@@H]3N(Cc3ccc(F)cc3)C1=O)N2 (relative stereo) [Example 24, cis-2-Amino-ethanesulfonic acid {3-[1-(4-fluoro-benzyl)-4-hydroxy-2-oxo-2,4-a,5,6,7,7a-hexahydro-1H-[1]pyrindin-3-yl]-1,1-dioxo-1,4-dihydro-1λ^6 benzo[1,2,4]thiadiazin-7-yl}-amide]"
18,20 to 100,"CS(=O)(=O)Nc1ccc2c(c1)S(=O)(=O)N=C(C1=C(O)[C@@H]3CCC[C@@H]3N(Cc3ccccc3)C1=O)N2 (relative stereo) [Example 7, cis-N-[3-(1-Benzyl-4-hydroxy-2-oxo-2,4-a,5,6,7,7a-hexahydro-1H-[1]pyrindin-3-yl)-1,1-dioxo-1,4-dihydro-1λ^6-benzo[1,2,4]thiadiazin-7-yl]-methanesulfonamide]"
19,100 to 1000,"O=C1C(C2=NS(=O)(=O)c3cc(NS(=O)(=O)Cc4ccccc4)ccc3N2)=C(O)[C@@H]2CCC[C@@H]2N1Cc1ccc(F)cc1 [Example 52, (4aR,7aS)-N-{3-[1-(4-Fluoro-benzyl)-4-hydroxy-2-oxo-2,4a,5,6,7,7a-hexahydro-1H-[1]pyrindin-3-yl]-1,1-dioxo-1,4-dihydro-1λ^6-benzo[1,2,4]thiadiazin-7-yl}-C-phenyl-methanesulfonamide]"
20,< 20,"CC(C)CCN1C(=O)C(C2=NS(=O)(=O)c3cc(NS(C)(=O)=O)ccc3N2)=C(O)[C@H]2CCC[C@H]21 (relative stereo) [Example 17, cis-N-{3-[2-(3-Methylbutyl)-5-hydroxy-3-oxo-2-aza-bicyclo[4.3.0]non-4-en-4-yl]-1,1-dioxo-1,4-dihydro-1λ^6-benzo[1,2,4]thiadiazin-7-yl}-methanesulfonamide]"
21,1000 to 100000,"CS(=O)(=O)Nc1ccc2c(c1)S(=O)(=O)N=C(C1=C(O)[C@@H]3CCC[C@@H]3N(c3ccccc3)C1=O)N2 (relative stereo) [Example 48, cis-N-[3-(4-Hydroxy-2-oxo-1-phenyl-2,4-a,5,6,7,7a-hexahydro-1H-[1]pyrindin-3-yl)-1,1-dioxo-1,4-dihydro-1λ^6-benzo[1,2,4]thiadiazin-7-yl]-methanesulfonamide]"
22,< 20,"CS(=O)(=O)Nc1ccc2c(c1)S(=O)(=O)C=C(C1=C(O)[C@@H]3CCCCC[C@@H]3N(Cc3ccc(F)cc3)C1=O)N2 (relative stereo) [Example 57, cis-N-{3-[1-(4-Fluoro-benzyl)-4-hydroxy-2-oxo-2,4a,5,6,7,8,9,9a-octahydro-1H-cyclohepta[b]pyridin-3-yl]-1,1-dioxo-1,4-dihydro-1λ^6-benzo[1,4]thiazin-7-yl}-methanesulfonamide]"
23,< 20,"CS(=O)(=O)Nc1ccc2c(c1)S(=O)(=O)N=C(C1=C(O)[C@@H]3CCC[C@@H]3N(Cc3ccc(F)c(Cl)c3)C1=O)N2 [Example 11, (4aR,7aS)—N-{3-[1-(3-Chloro-4-fluoro-benzyl)-4-hydroxy-2-oxo-2,4-a,5,6,7,7a-hexahydro-1H-[1]pyrindin-3-yl]-1,1-dioxo-1,4-dihydro-1λ^6-benzo[1,2,4]thiadiazin-7-yl}-methanesulfonamide]"
